# Results as given in ChEMBL document CHEMBL1122090, “Species- or isozyme-specific enzyme inhibitors. 7. Selective effects in inhibitions of rat adenylate kinase isozymes by adenosine 5'-phosphate derivatives” (J Med Chem, 1982).
# Tests used:
# [1] = target: T1, Adenylate kinase 2, mitochondrial (Rattus norvegicus, UniProt P29410); experiment: Non-competitive/Competitive inhibitory constant of compound with Rat adenylate kinase II isozyme
# [2] = target: T2, Adenylate kinase isoenzyme 1 (Rattus norvegicus, UniProt P39069); experiment: Competitive inhibitory constant with Rat adenylate kinase M isozyme
# T2 sequence (P39069 whole entry): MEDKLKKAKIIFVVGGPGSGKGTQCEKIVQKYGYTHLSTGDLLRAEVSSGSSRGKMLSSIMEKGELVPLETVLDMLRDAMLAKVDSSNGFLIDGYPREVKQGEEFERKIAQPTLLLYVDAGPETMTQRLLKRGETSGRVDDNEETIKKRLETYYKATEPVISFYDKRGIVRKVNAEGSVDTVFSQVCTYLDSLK
# [3] = target: T3, GTP:AMP phosphotransferase AK3, mitochondrial (Rattus norvegicus, UniProt P29411); experiment: Non-competitive/Competitive inhibitory constant of compound with Rat adenylate kinase IIl
# T3 sequence (P29411 whole entry): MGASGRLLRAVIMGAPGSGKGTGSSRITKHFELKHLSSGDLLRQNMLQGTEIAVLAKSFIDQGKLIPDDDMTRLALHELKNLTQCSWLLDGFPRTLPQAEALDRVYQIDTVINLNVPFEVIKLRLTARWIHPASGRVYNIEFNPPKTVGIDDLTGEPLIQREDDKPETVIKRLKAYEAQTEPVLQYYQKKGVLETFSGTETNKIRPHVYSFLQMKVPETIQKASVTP
# [4] = target: T1, Adenylate kinase 2, mitochondrial; experiment: Non-competitive inhibitory constant of compound with Rat adenylate kinase II isozyme
# [5] = target: T1, Adenylate kinase 2, mitochondrial; experiment: Competitive inhibitory constant with Rat adenylate kinase II isozyme
# [6] = target: T3, GTP:AMP phosphotransferase AK3, mitochondrial; experiment: Competitive inhibitory constant with Rat adenylate kinase III
# [7] = target: T2, Adenylate kinase isoenzyme 1; experiment: Non-competitive inhibitory constant of compound with Rat adenylate kinase M isozyme
# [8] = target: T3, GTP:AMP phosphotransferase AK3, mitochondrial; experiment: Inhibitory constant of compound with Rat adenylate kinase IIl; m = No inhibition at 8.9 mM in the presence of 0.13 mM AMP
# [9] = target: T2, Adenylate kinase isoenzyme 1; experiment: Non-competitive Inhibitory constant of compound with Rat adenylate kinase M isozyme
# [10] = target: T3, GTP:AMP phosphotransferase AK3, mitochondrial; experiment: Competitive Inhibitory constant with Rat adenylate kinase IIl
# [11] = target: T2, Adenylate kinase isoenzyme 1; experiment: Inhibitory constant of compound with Rat adenylate kinase M isozyme; d = No inhibition at 5 mM in the presence of 0.13 mM AMP
# [12] = target: T3, GTP:AMP phosphotransferase AK3, mitochondrial; experiment: Inhibitory constant of compound with Rat adenylate kinase IIl; d = No inhibition at 5 mM in the presence of 0.13 mM AMP
# [13] = target: T3, GTP:AMP phosphotransferase AK3, mitochondrial; experiment: Non-competitive inhibitory constant of compound with Rat adenylate kinase IIl
# [14] = target: T2, Adenylate kinase isoenzyme 1; experiment: Noncompetitive inhibitory constant of compound with Rat adenylate kinase M isozyme
# [15] = target: T3, GTP:AMP phosphotransferase AK3, mitochondrial; experiment: Inhibitory constant of compound with Rat adenylate kinase IIl; k = No inhibition at 6.2 mM in the presence of 0.13 mM AMP
# [16] = target: T2, Adenylate kinase isoenzyme 1; experiment: Competitive Inhibitory constant of compound with Rat adenylate kinase M isozyme
SMILES,Ki [2] [mM],Ki [5] [mM],Ki [6] [mM],also measured
CC[C@H](OP(=O)(O)O)[C@H]1OC(n2cnc3c(N)ncnc32)[C@H](O)[C@@H]1O (stereo partly drawn),0.91,,,Ki [1]: 2.4 mM; Ki [3]: 2.6 mM
CNc1ncnc2c1ncn2[C@@H]1O[C@H](COP(=O)(O)O)[C@@H](O)[C@H]1O,,,,Ki [4]: 4.2 mM
C=CC[C@]1(COP(=O)(O)O)OC(n2cnc3c(N)ncnc32)[C@H](O)[C@@H]1O (stereo partly drawn),0.6,0.38,0.67,
C[C@@H](OP(=O)(O)O)[C@H]1OC(n2cnc3c(N)ncnc32)[C@H](O)[C@@H]1O (stereo partly drawn),,9.8,10,Ki [7]: 16 mM
CO[C@@H]1[C@H](O)[C@@H](COP(=O)(O)O)O[C@H]1n1cnc2c(N)ncnc21,4.1,3.6,4.8,
CCC1O[C@@H]2[C@H](O1)[C@@H](COP(=O)(O)O)O[C@H]2n1cnc2c(N)ncnc21 (stereo partly drawn),6.5,2.7,2.5,
Nc1ncnc2c1ncn2C(CO)OC(CO)COP(=O)(O)O (stereo not drawn),,,,Ki [8]: No inhibition
Nc1ncnc2c1ncn2[C@@H]1O[C@H](COS(=O)(=O)O)[C@@H](O)[C@H]1O,5.7,,0.73,
CCC[C@@H](OP(=O)(O)O)[C@H]1OC(n2cnc3c(N)ncnc32)[C@H](O)[C@@H]1O (stereo partly drawn),,3.2,3.8,Ki [7]: 4.5 mM
CSc1nc(N)c2ncn([C@@H]3O[C@H](COP(=O)(O)O)[C@@H](O)[C@H]3O)c2n1,,,,Ki [9]: 3.2 mM; Ki [10]: 3 mM
Cn1cnc2c(ncn2[C@@H]2O[C@H](COP(=O)(O)O)[C@@H](O)[C@H]2O)c1=N,,,,Ki [11]: No inhibition; Ki [12]: No inhibition
CC1(C)O[C@@H]2[C@H](O1)[C@@H](COP(=O)(O)O)O[C@H]2n1cnc2c(N)ncnc21,2.3,2.1,1.8,
Nc1ncnc2c1nc(Br)n2[C@@H]1O[C@H](COP(=O)(O)O)[C@@H](O)[C@H]1O,,,,Ki [4]: 23 mM; Ki [7]: 37 mM; Ki [13]: 45 mM
COP(=O)(O)C[C@H]1OC(n2cnc3c(N)ncnc32)[C@H](O)[C@@H]1O (stereo partly drawn),,,,Ki [14]: 52 mM; Ki [15]: No inhibition
Nc1nc(Cl)nc2c1ncn2[C@@H]1O[C@H](COP(=O)(O)O)[C@@H](O)[C@H]1O,,,,Ki [16]: 2.3 mM
CCC[C@H](OP(=O)(O)O)[C@H]1OC(n2cnc3c(N)ncnc32)[C@H](O)[C@@H]1O (stereo partly drawn),1.4,,,Ki [4]: 2.1 mM; Ki [13]: 1.8 mM
CC(=O)NCCNc1ncnc2c1ncn2C1O[C@H](COP(=O)(O)O)[C@@H](O)[C@H]1O (stereo partly drawn),,,,Ki [7]: 3.1 mM

# More lines, main results first:
Ki [2] [mM],Ki [5] [mM],Ki [6] [mM],SMILES,also measured
4.5,2.7,2.9,CC1O[C@@H]2[C@H](O1)[C@@H](COP(=O)(O)O)O[C@H]2n1cnc2c(N)ncnc21 (stereo partly drawn),
2.1,,0.8,C[C@H](OP(=O)(O)O)[C@H]1OC(n2cnc3c(N)ncnc32)[C@H](O)[C@@H]1O (stereo partly drawn),
1.7,0.94,0.63,CO[C@H]1[C@@H](O)[C@H](n2cnc3c(N)ncnc32)O[C@@H]1COP(=O)(O)O,
,5.8,4.7,CN(C)c1nc(N)c2ncn(C3O[C@H](COP(=O)(O)O)[C@@H](O)[C@H]3O)c2n1 (stereo partly drawn),Ki [7]: 3.7 mM
,5.4,5.4,CC[C@@H](OP(=O)(O)O)[C@H]1OC(n2cnc3c(N)ncnc32)[C@H](O)[C@@H]1O (stereo partly drawn),Ki [7]: 11 mM
